The numbers were not newly measured in patent US20060240493A1, “Cca1 as an antifungal target” (priority 2002, published 2006), which cites them from elsewhere.

The conditions of this data set: mice, DOX 2 mg/ml in 5% sucrose drinking water, approximately 5 ml every day.

Each structure is given as a SMILES string.

In the case of `C[C@H]1c2cccc(O)c2C(=O)C2=C(O)[C@]3(O)C(=O)C(C(N)=O)=C(O)[C@@H](N(C)C)[C@@H]3[C@@H](O)[C@@H]21` [doxycycline], the “concentration of DOX in kidney” value is > 10 mg/g of kidney, the “concentration of DOX in liver” value is on record as > 8 mg/g of liver and the “concentration of DOX in serum” value was “more than 2 mg/ml of serum”.
